Experiments:
velvetleaf [1] = test: Test C pre-/postemergence herbicide test; type: in vivo, Abutilon theophrasti; settings: for Velvetleaf plant response rating: 500 g ai/ha
Outline: (§1)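 Greenhouse-grown plants were evaluated visually 12 to 14 days after treatment, with 100 meaning complete control and 0 no effect. Application was preemergence, or postemergence at 2 to 18 cm.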

cocklebur = test: Test C pre-/postemergence herbicide test; type: in vivo, Xanthium strumarium; settings: for Cocklebur plant response rating: 500 g ai/ha
Outline: as §1

corn [2] = test: Test C pre-/postemergence herbicide test; type: in vivo, Zea mays; settings: for Corn plant response rating: 500 g ai/ha
Outline: as §1

corn [3] = test: Test B pre-/postemergence herbicide test; type: in vivo, Zea mays; settings: for Plant response rating, Corn: preemergence; for Corn plant response rating: postemergence, visual rating, scale 0 (no effect) to 100 (complete control)
Outline: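 Evaluation is visual, comparing treated with control plants on a scale where 0 means no effect and 100 means full control. Treatments were preemergence, or postemergence on seedlings 2–18 cm tall, and held 13–15 days in the greenhouse.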

kochia = test: Test C pre-/postemergence herbicide test; type: in vivo, Kochia scoparia; settings: for Kochia plant response rating: 500 g ai/ha
Outline: as §1

velvetleaf [4] = test: Test A pre-/postemergence herbicide test; type: in vivo, Abutilon theophrasti
Outline: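 Plants are held in greenhouse about ten days after treatment, then compared with untreated controls and scored 0 (no effect) to 100 (complete control). Preemergence dosing is a directed soil spray on sown sandy loam; postemergence dosing is spray to runoff at 2–10 cm height.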

ducksalad = test: Test B flooded paddy test; type: in vivo, Heteranthera limosa; settings: 1000 g ai/ha, visual rating, scale 0 to 100 (0 no effect, 100 complete control), 13 to 15 days
Outline: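 After treating 2-leaf paddy plants or 2–18 cm postemergence plants (1 to 4 leaves) with formulated chemical, researchers kept them in a greenhouse for 13–15 days. Effects were judged visually versus controls: 0 indicates none, 100 total control.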

giant foxtail = test: Test C pre-/postemergence herbicide test; type: in vivo, Setaria faberi; settings: for Foxtail, Giant plant response rating: 500 g ai/ha
Outline: as §1

[5] = 125 g ai/ha, scale 0 (no effect) to 100 (complete control), visual, 12 to 14 days, preemergence
[6] = Postemergence, 250 g ai/ha, scale 0 to 100, 0 no effect, 100 complete control
[7] = Preemergence, scale 0 to 100, 0 no effect, 100 complete control
[8] = postemergence, 125 g ai/ha, scale 0 to 100
[9] = postemergence, 62 g ai/ha, scale 0 to 100
[10] = 250 g ai/ha, scale 0 to 100 (0 no effect, 100 complete control), visual, 12 to 14 days, preemergence
[11] = 500 g ai/ha, visual rating 0-100, 0 no effect, 100 complete control
[12] = 125 g ai/ha, 0 to 100 scale, 0 is no effect, 100 is complete control
[13] = Postemergence, 500 g ai/ha, 0 to 100 scale, 0 no effect, 100 complete control
[14] = Postemergence, 2000 g ai/ha, 0 to 100 scale, 0 no effect, 100 complete control
[15] = Preemergence, 2000 g ai/ha, visual rating, 0 to 100 scale (0 no effect, 100 complete control)
[16] = preemergence, 500 g ai/ha, visual injury, 0 to 100 scale (0 no effect, 100 complete control)
[17] = 62 g ai/ha, preemergence, scale 0 to 100

## CCNC(=O)c1cccc(NC(=O)c2cc(C(C)(C)C)nn2CC)n1 [Compound 144]
Velvetleaf [1]; [5]
  Plant response rating, Velvetleaf: 100
Velvetleaf [1]; Postemergence, scale 0 to 100
  Velvetleaf plant response rating: 50
Velvetleaf [1]; [6]
  Plant response rating, Velvetleaf: 50
Velvetleaf [1]; [7]
  Velvetleaf plant response rating: 100
Velvetleaf [1]; [8]
  Plant response rating, Velvetleaf: 20
Velvetleaf [1]; [9]
  Plant response rating, Velvetleaf: 0
cocklebur; 62 g ai/ha, preemergence
  Plant response rating (0 = no effect, 100 = complete control), Cocklebur: 0
cocklebur; [5]
  Plant response rating, Cocklebur: 0
cocklebur; [10]
  Plant response rating, Cocklebur: 0
cocklebur; Postemergence, scale 0 to 100
  Cocklebur plant response rating: 70
cocklebur; [6]
  Plant response rating, Cocklebur: 70
cocklebur; [7]
  Cocklebur plant response rating: 80
cocklebur; [8]
  Plant response rating, Cocklebur: 40
cocklebur; [9]
  Plant response rating, Cocklebur: 10
Corn [2]; 62 g ai/ha, preemergence
  Plant response rating (0 = no effect, 100 = complete control), Corn: 0
Corn [2]; [5]
  Plant response rating, Corn: 30
Corn [2]; [10]
  Plant response rating, Corn: 40
Corn [2]; Postemergence, scale 0 to 100
  Corn plant response rating: 30
Corn [2]; [6]
  Plant response rating, Corn: 20
Corn [2]; [7]
  Corn plant response rating: 50
Corn [2]; [8]
  Plant response rating, Corn: 20
Corn [2]; [9]
  Plant response rating, Corn: 10
Corn [3]; [11]
  Plant response rating, Corn: 10
Corn [3]; 125 g ai/ha
  Corn plant response rating: 20
Corn [3]; 500 g ai/ha
  Corn plant response rating: 30
Corn [3]; [12]
  Plant response rating, Corn: 10
kochia; 62 g ai/ha, preemergence
  Plant response rating (0 = no effect, 100 = complete control), Kochia: 75
kochia; [5]
  Plant response rating, Kochia: 80
kochia; Postemergence, scale 0 to 100
  Kochia plant response rating: 85
kochia; [6]
  Plant response rating, Kochia: 70
kochia; [7]
  Kochia plant response rating: 100
kochia; [8]
  Plant response rating, Kochia: 65
Velvetleaf [4]; [13]
  Velvetleaf plant response rating: 55
Velvetleaf [4]; [14]
  Plant response rating, Velvetleaf: 75
Velvetleaf [4]; [15]
  Velvetleaf plant response rating: 90
Velvetleaf [4]; [16]
  Velvetleaf plant response rating: 70
ducksalad
  Ducksalad plant response rating: 90
Giant foxtail; 62 g ai/ha, preemergence
  Plant response rating (0 = no effect, 100 = complete control), Foxtail, Giant: 40
Giant foxtail; [5]
  Plant response rating, Foxtail, Giant: 70
Giant foxtail; [10]
  Plant response rating, Foxtail, Giant: 100
Giant foxtail; Postemergence, scale 0 to 100
  Foxtail, Giant plant response rating: 70
Giant foxtail; [6]
  Plant response rating, Foxtail, Giant: 50
Giant foxtail; [7]
  Foxtail, Giant plant response rating: 100
Giant foxtail; [8]
  Plant response rating, Foxtail, Giant: 10
Giant foxtail; [9]
  Plant response rating, Foxtail, Giant: 0

## C#CCNC(=O)c1cccc(NC(=O)c2cc(C(C)(C)C)nn2CC)n1 [Compound 147]
Velvetleaf [1]; [5]
  Plant response rating, Velvetleaf: 20
Velvetleaf [1]; Postemergence, scale 0 to 100
  Velvetleaf plant response rating: 40
Velvetleaf [1]; [7]
  Velvetleaf plant response rating: 90
Velvetleaf [1]; [8]
  Plant response rating, Velvetleaf: 30
Velvetleaf [1]; [9]
  Plant response rating, Velvetleaf: 0
cocklebur; 62 g ai/ha, preemergence
  Plant response rating (0 = no effect, 100 = complete control), Cocklebur: 0
cocklebur; Postemergence, scale 0 to 100
  Cocklebur plant response rating: 20
cocklebur; [6]
  Plant response rating, Cocklebur: 5
cocklebur; [7]
  Cocklebur plant response rating: 0
cocklebur; [8]
  Plant response rating, Cocklebur: 5
cocklebur; [9]
  Plant response rating, Cocklebur: 0
Corn [2]; 62 g ai/ha, preemergence
  Plant response rating (0 = no effect, 100 = complete control), Corn: 0
Corn [2]; [5]
  Plant response rating, Corn: 0
Corn [2]; [10]
  Plant response rating, Corn: 0
Corn [2]; Postemergence, scale 0 to 100
  Corn plant response rating: 15
Corn [2]; [6]
  Plant response rating, Corn: 10
Corn [2]; [7]
  Corn plant response rating: 60
Corn [2]; [8]
  Plant response rating, Corn: 5
Corn [2]; [9]
  Plant response rating, Corn: 0
Corn [3]; [11]
  Plant response rating, Corn: 10
Corn [3]; 125 g ai/ha
  Corn plant response rating: 10
Corn [3]; 500 g ai/ha
  Corn plant response rating: 30
Corn [3]; [12]
  Plant response rating, Corn: 10
kochia; [5]
  Plant response rating, Kochia: 40
kochia; Postemergence, scale 0 to 100
  Kochia plant response rating: 80
kochia; [6]
  Plant response rating, Kochia: 50
kochia; [7]
  Kochia plant response rating: 100
kochia; [8]
  Plant response rating, Kochia: 10
kochia; [9]
  Plant response rating, Kochia: 5
Velvetleaf [4]; [13]
  Velvetleaf plant response rating: 30
Velvetleaf [4]; [14]
  Plant response rating, Velvetleaf: 50
Velvetleaf [4]; [15]
  Velvetleaf plant response rating: 85
Velvetleaf [4]; [16]
  Velvetleaf plant response rating: 25
ducksalad
  Ducksalad plant response rating: 80
Giant foxtail; 62 g ai/ha, preemergence
  Plant response rating (0 = no effect, 100 = complete control), Foxtail, Giant: 0
Giant foxtail; [5]
  Plant response rating, Foxtail, Giant: 0
Giant foxtail; [10]
  Plant response rating, Foxtail, Giant: 30
Giant foxtail; Postemergence, scale 0 to 100
  Foxtail, Giant plant response rating: 45
Giant foxtail; [6]
  Plant response rating, Foxtail, Giant: 0
Giant foxtail; [7]
  Foxtail, Giant plant response rating: 100
Giant foxtail; [8]
  Plant response rating, Foxtail, Giant: 0
Giant foxtail; [9]
  Plant response rating, Foxtail, Giant: 0

## CCN(CC)C(=O)c1ccnc(NC(=O)c2cc(C(C)(C)C)nn2CC)c1 [Compound 153]
Velvetleaf [1]; [17]
  Plant response rating, Velvetleaf: 0
Velvetleaf [1]; [5]
  Plant response rating, Velvetleaf: 20
Velvetleaf [1]; [7]
  Velvetleaf plant response rating: 100
cocklebur; [17]
  Plant response rating, Cocklebur: 0
cocklebur; [5]
  Plant response rating, Cocklebur: 0
cocklebur; [10]
  Plant response rating, Cocklebur: 0
cocklebur; [7]
  Cocklebur plant response rating: 0
Corn [2]; [17]
  Plant response rating, Corn: 0
Corn [2]; [5]
  Plant response rating, Corn: 0
Corn [2]; [10]
  Plant response rating, Corn: 0
Corn [2]; [7]
  Corn plant response rating: 0
Corn [3]; [11]
  Plant response rating, Corn: 20
Corn [3]; 125 g ai/ha
  Corn plant response rating: 10
Corn [3]; 500 g ai/ha
  Corn plant response rating: 20
Corn [3]; [12]
  Plant response rating, Corn: 0
kochia; [17]
  Plant response rating, Kochia: 65
kochia; [5]
  Plant response rating, Kochia: 95
kochia; [7]
  Kochia plant response rating: 100
Velvetleaf [4]; [13]
  Velvetleaf plant response rating: 40
Velvetleaf [4]; [14]
  Plant response rating, Velvetleaf: 65
Velvetleaf [4]; [15]
  Velvetleaf plant response rating: 80
Velvetleaf [4]; [16]
  Velvetleaf plant response rating: 15
ducksalad
  Ducksalad plant response rating: 80
Giant foxtail; [17]
  Plant response rating, Foxtail, Giant: 0
Giant foxtail; [5]
  Plant response rating, Foxtail, Giant: 0
Giant foxtail; [10]
  Plant response rating, Foxtail, Giant: 0
Giant foxtail; [7]
  Foxtail, Giant plant response rating: 0

Source: patent publication US20060069132A1, “Azolecarboxamide herbicides” (priority 2004, published 2006)
